Earlier results as cited in US20070111953A1, “Compositions to improve the bioavailability of polymethoxyflavones and tocotrienols for treatment of cardiovascular disease” (KGK Synergize, Inc., priority 2005, published 2007).

Tested on: acetylated LDL metabolism

COc1ccc(-c2cc(=O)c3c(OC)c(OC)c(OC)c(OC)c3o2)cc1OC [nobiletin]
Inhibition of acetylated LDL metabolism: 50-72%
